Source: ChEMBL document CHEMBL1201862, “PubChem BioAssay data set” (2004)
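Cultured in 96-well plates, cells were exposed to test compound for 48 hours across five concentrations. At the GI50, growth is halved.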 Activity calls are given as the source filed them. Cut-off read from the data, not from the text of the source: active = GI50 up to about 1.1 µM and inactive = higher.

What was measured:
Experiment in all cases: growth of human tumour cells (NCI), 48 h
A498 = tested on: A498
CCRF-CEM = tested on: CCRF-CEM
EKVX = tested on: EKVX
HCC 2998 = tested on: HCC 2998
HOP-62 = tested on: HOP-62
HOP-92 = tested on: HOP-92
HT-29 = tested on: HT-29
KM12 = tested on: KM12
M14 = tested on: M14
Malme-3M = tested on: Malme-3M
OVCAR-8 = tested on: OVCAR-8
RPMI-8226 = tested on: RPMI-8226
SNB-75 = tested on: SNB-75
UACC-62 = tested on: UACC-62
NCI-H522 = tested on: NCI-H522
SK-MEL-2 = tested on: SK-MEL-2

Structure (SMILES)	GI50 (A498)	GI50 (CCRF-CEM)	GI50 (EKVX)	GI50 (HCC 2998)	GI50 (HOP-62)	GI50 (HOP-92)	GI50 (HT-29)	GI50 (KM12)	GI50 (M14)	GI50 (Malme-3M)	GI50 (OVCAR-8)	GI50 (RPMI-8226)	GI50 (SNB-75)	GI50 (UACC-62)	GI50 (NCI-H522)	GI50 (SK-MEL-2)
COC(=O)C1C(=O)O[C@@H](c2ccc(OC)cc2)C1C(=O)OC (stereo not given in full)	52.4 µM (inactive)	> 100 µM (inactive)	> 100 µM (inactive)	> 100 µM (inactive)	> 100 µM (inactive)	> 100 µM (inactive)	> 100 µM (inactive)	> 100 µM (inactive)	> 100 µM (inactive)	> 100 µM (inactive)	> 100 µM (inactive)	> 100 µM (inactive)	> 100 µM (inactive)	> 100 µM (inactive)	–	–
O=C1C=CC=CC2CC=C[C@@H](O)C12 (stereo not given in full)	15.9 µM (inactive)	15.3 µM (inactive)	24.5 µM (inactive)	–	45.7 µM (inactive)	–	16.8 µM (inactive)	10.4 µM (inactive)	18.7 µM (inactive)	21.3 µM (inactive)	29.6 µM (inactive)	3.41 µM (inactive)	–	17.8 µM (inactive)	13.7 µM (inactive)	22.1 µM (inactive)
O=C(Nc1c(O)[nH]c(=S)[nH]c1=O)c1ccccc1	> 100 µM (inactive)	> 100 µM (inactive)	–	–	> 100 µM (inactive)	> 100 µM (inactive)	> 100 µM (inactive)	> 100 µM (inactive)	> 100 µM (inactive)	> 100 µM (inactive)	> 100 µM (inactive)	> 100 µM (inactive)	> 100 µM (inactive)	> 100 µM (inactive)	> 100 µM (inactive)	> 100 µM (inactive)
O=C(O)c1ccccc1NS(=O)(=O)c1ccc([N+](=O)[O-])cc1	–	> 100 µM (inactive)	> 100 µM (inactive)	> 100 µM (inactive)	> 100 µM (inactive)	–	> 100 µM (inactive)	> 100 µM (inactive)	> 100 µM (inactive)	> 100 µM (inactive)	> 100 µM (inactive)	> 100 µM (inactive)	> 100 µM (inactive)	> 100 µM (inactive)	> 100 µM (inactive)	> 100 µM (inactive)
CCOC(=O)CCn1cnc(N)n1	–	> 100 µM (inactive)	> 100 µM (inactive)	> 100 µM (inactive)	> 100 µM (inactive)	> 100 µM (inactive)	> 100 µM (inactive)	> 100 µM (inactive)	> 100 µM (inactive)	> 100 µM (inactive)	> 100 µM (inactive)	> 100 µM (inactive)	> 100 µM (inactive)	> 100 µM (inactive)	> 100 µM (inactive)	> 100 µM (inactive)
O=C1Nc2ccccc2/C1=N/NC(=O)c1ccccc1O	23.5 µM (inactive)	33.4 µM (inactive)	68.5 µM (inactive)	23 µM (inactive)	57.3 µM (inactive)	–	82.2 µM (inactive)	33.7 µM (inactive)	50.1 µM (inactive)	35.1 µM (inactive)	44.5 µM (inactive)	56.5 µM (inactive)	19.8 µM (inactive)	36.1 µM (inactive)	39.7 µM (inactive)	23 µM (inactive)
O=C1CCN2C(=O)CCN12	> 100 µM (inactive)	> 100 µM (inactive)	> 100 µM (inactive)	–	> 100 µM (inactive)	> 100 µM (inactive)	> 100 µM (inactive)	> 100 µM (inactive)	> 100 µM (inactive)	> 100 µM (inactive)	> 100 µM (inactive)	> 100 µM (inactive)	–	> 100 µM (inactive)	> 100 µM (inactive)	> 100 µM (inactive)
COc1cccc2c1[C@H]1OC(=O)NC1CCCCC2 (stereo not given in full)	> 100 µM (inactive)	> 100 µM (inactive)	> 100 µM (inactive)	> 100 µM (inactive)	> 100 µM (inactive)	–	> 100 µM (inactive)	> 100 µM (inactive)	> 100 µM (inactive)	> 100 µM (inactive)	> 100 µM (inactive)	> 100 µM (inactive)	> 100 µM (inactive)	> 100 µM (inactive)	> 100 µM (inactive)	> 100 µM (inactive)
CC1=C(C)C(=O)c2c(cc3ccc4ccccc4n23)C1=O	> 100 µM (inactive)	> 100 µM (inactive)	> 100 µM (inactive)	> 100 µM (inactive)	–	–	> 100 µM (inactive)	> 100 µM (inactive)	> 100 µM (inactive)	> 100 µM (inactive)	> 100 µM (inactive)	> 100 µM (inactive)	> 100 µM (inactive)	> 100 µM (inactive)	–	–
CCCCN(CCCC)CCCn1cnc2ncccc2c1=O	–	> 100 µM (inactive)	> 100 µM (inactive)	> 100 µM (inactive)	> 100 µM (inactive)	> 100 µM (inactive)	> 100 µM (inactive)	> 100 µM (inactive)	> 100 µM (inactive)	> 100 µM (inactive)	> 100 µM (inactive)	–	> 100 µM (inactive)	> 100 µM (inactive)	> 100 µM (inactive)	> 100 µM (inactive)
CC1CCP(=O)(c2ccccc2)CC1 (stereo not given)	> 10 µM (inactive)	> 100 µM (inactive)	> 100 µM (inactive)	> 100 µM (inactive)	> 100 µM (inactive)	–	> 100 µM (inactive)	> 100 µM (inactive)	> 100 µM (inactive)	> 100 µM (inactive)	> 100 µM (inactive)	> 100 µM (inactive)	> 100 µM (inactive)	> 100 µM (inactive)	–	> 100 µM (inactive)
CCOC(=O)NC(=O)c1cn(CCCO)c(=O)[nH]c1=O	> 100 µM (inactive)	> 100 µM (inactive)	> 100 µM (inactive)	> 100 µM (inactive)	> 100 µM (inactive)	> 100 µM (inactive)	> 100 µM (inactive)	> 100 µM (inactive)	> 100 µM (inactive)	> 100 µM (inactive)	> 100 µM (inactive)	> 100 µM (inactive)	45.6 µM (inactive)	> 100 µM (inactive)	–	> 100 µM (inactive)
CN(C(=O)C12C3C4C1C1C2C3C41C(O)C(C)(C)C)C(C)(C)C (stereo not given)	> 100 µM (inactive)	> 100 µM (inactive)	> 100 µM (inactive)	> 100 µM (inactive)	> 100 µM (inactive)	–	> 100 µM (inactive)	> 100 µM (inactive)	> 100 µM (inactive)	> 100 µM (inactive)	> 100 µM (inactive)	> 100 µM (inactive)	> 100 µM (inactive)	> 100 µM (inactive)	58.2 µM (inactive)	> 100 µM (inactive)
C/C(CCN(C)C)=N/O	–	0.194 µM (active)	1.55 µM (inactive)	1.16 µM (inactive)	1.77 µM (inactive)	9.44 µM (inactive)	0.658 µM (active)	12.5 µM (inactive)	0.859 µM (active)	–	0.826 µM (active)	0.313 µM (active)	16.8 µM (inactive)	1.15 µM (inactive)	–	16.5 µM (inactive)
COC(=O)NC(=O)c1cn(CCCOC(=O)CCCCCCCCC(=O)OCCCn2cc(C(=O)NC(=O)OC)c(=O)[nH]c2=O)c(=O)[nH]c1=O	> 100 µM (inactive)	> 100 µM (inactive)	55.2 µM (inactive)	> 100 µM (inactive)	23.1 µM (inactive)	36.7 µM (inactive)	> 100 µM (inactive)	> 100 µM (inactive)	> 100 µM (inactive)	> 100 µM (inactive)	23.9 µM (inactive)	> 100 µM (inactive)	22.3 µM (inactive)	> 100 µM (inactive)	–	> 100 µM (inactive)
CCc1cc2c(c3[nH]ccc13)[C@@H](C)C[C@H]2C	15.6 µM (inactive)	20.4 µM (inactive)	20.7 µM (inactive)	21.2 µM (inactive)	–	16.2 µM (inactive)	19.7 µM (inactive)	19.1 µM (inactive)	17.2 µM (inactive)	18.6 µM (inactive)	19.7 µM (inactive)	20.1 µM (inactive)	17.5 µM (inactive)	16.9 µM (inactive)	16.2 µM (inactive)	–
O=c1c2cc(Br)cc(Br)c2[nH]c(=S)n1-c1ccccc1	> 100 µM (inactive)	42.2 µM (inactive)	58.1 µM (inactive)	92.5 µM (inactive)	88.5 µM (inactive)	28.9 µM (inactive)	> 100 µM (inactive)	> 100 µM (inactive)	> 100 µM (inactive)	82.4 µM (inactive)	63 µM (inactive)	28.9 µM (inactive)	32.1 µM (inactive)	91.2 µM (inactive)	–	> 100 µM (inactive)
COc1ccc2c(CCNC(C)=O)c(C(C)=O)[nH]c2c1	> 100 µM (inactive)	> 100 µM (inactive)	> 100 µM (inactive)	> 100 µM (inactive)	> 100 µM (inactive)	–	> 100 µM (inactive)	> 100 µM (inactive)	> 100 µM (inactive)	–	> 100 µM (inactive)	> 100 µM (inactive)	> 100 µM (inactive)	> 100 µM (inactive)	> 100 µM (inactive)	> 100 µM (inactive)
CSc1nc(NC2OCC(OC(C)=O)C(OC(C)=O)C2OC(C)=O)c2c(OC(C)=O)c(C)c(=O)oc2n1 (stereo not given)	> 100 µM (inactive)	> 100 µM (inactive)	> 100 µM (inactive)	> 100 µM (inactive)	> 100 µM (inactive)	71.6 µM (inactive)	> 100 µM (inactive)	> 100 µM (inactive)	> 100 µM (inactive)	> 100 µM (inactive)	> 100 µM (inactive)	> 100 µM (inactive)	> 100 µM (inactive)	> 100 µM (inactive)	–	> 100 µM (inactive)
